Tests used:
[1] = system: HeLa; assay: In vitro antiproliferative activity against human uterine carcinoma HeLa S3 cells.; format: functional, cell-based
[2] = system: P388; assay: Compound was tested in vivo for antitumor activity against lymphocytic leukemia P388 in mice; format: functional, Mus musculus
[3] = system: P388; assay: In vivo antitumor activity of compound was tested as maximal increase in life span (ILSmax) against lymphocytic leukemia P388 in mice; format: functional, Mus musculus

| Structure (SMILES) | IC50 ([1]; Homo sapiens, HeLa) [nM] | Optimal dose [2] [mg/kg] | ILSmax [3] [%] | IC50 ([1]; hela) [nM] |
| --- | --- | --- | --- | --- |
| C/C1=C\[C@@H](OC(=O)C2CCCCC2)C(=O)/C=C/C=C\c2csc(n2)[C@@H](C)NC(=O)C[C@@]2(CC1)[S+]([O-])SC(=O)[C@]2(C)O (stereo partly drawn) | 58 | 4 | 49 | – |
| C/C1=C\[C@@H](OC(=O)c2ccccc2)C(=O)/C=C/C=C\c2csc(n2)[C@@H](C)NC(=O)C[C@@]2(CC1)[S+]([O-])SC(=O)[C@]2(C)O (stereo partly drawn) | 130 | 2 | 36 | – |
| CCOC(=O)O[C@@H]1/C=C(\C)CC[C@]2(CC(=O)N[C@H](C)c3nc(cs3)/C=C\C=C\C1=O)[S+]([O-])SC(=O)[C@]2(C)O (stereo partly drawn) | 1.4 | 2 | 31 | – |
| C/C1=C\[C@@H](OC(=O)Oc2ccc([N+](=O)[O-])cc2)C(=O)/C=C/C=C\c2csc(n2)[C@@H](C)NC(=O)C[C@@]2(CC1)[S+]([O-])SC(=O)[C@]2(C)O (stereo partly drawn) | 22 | 2 | 57 | – |
| CC(=O)O[C@@H]1/C=C(\C)CC[C@]2(CC(=O)N[C@H](C)c3nc(cs3)/C=C\C=C\C1=O)[S+]([O-])SC(=O)[C@]2(C)O (stereo partly drawn) | 10 | 1 | 34 | – |
| C/C1=C\[C@@H](OC2CCCCO2)C(=O)/C=C/C=C\c2csc(n2)[C@@H](C)NC(=O)C[C@@]2(CC1)[S+]([O-])SC(=O)[C@]2(C)O (stereo partly drawn) | 1.3 | 0.13 | 28 | – |
| C/C1=C\[C@@H](OC(=O)c2cnc3ccccc3n2)C(=O)/C=C/C=C\c2csc(n2)[C@@H](C)NC(=O)C[C@@]2(CC1)[S+]([O-])SC(=O)[C@]2(C)O (stereo partly drawn) | 6.8 | 2 | 44 | – |
| C/C1=C\[C@@H](O)C(=N/O)/C=C/C=C\c2csc(n2)[C@@H](C)NC(=O)C[C@@]2(CC1)[S+]([O-])SC(=O)[C@]2(C)O (stereo partly drawn) | 910 | – | – | – |
| CCCCCCCCCCCCCCCC(=O)O[C@@H]1/C=C(\C)CC[C@]2(CC(=O)N[C@H](C)c3nc(cs3)/C=C\C=C\C1=O)[S+]([O-])SC(=O)[C@]2(C)O (stereo partly drawn) | 7700 | 16 | 37 | – |
| C/C1=C\[C@@H](OC(=O)N2CCCCC2)C(=O)/C=C/C=C\c2csc(n2)[C@@H](C)NC(=O)C[C@@]2(CC1)[S+]([O-])SC(=O)[C@]2(C)O (stereo partly drawn) | 180 | – | – | – |
| COC1(O[C@@H]2/C=C(\C)CC[C@]3(CC(=O)N[C@H](C)c4nc(cs4)/C=C\C=C\C2=O)[S+]([O-])SC(=O)[C@]3(C)O)CCOCC1 (stereo partly drawn) | 18 | 2 | 35 | – |
| CC(=O)O[C@@H]1/C=C(\C)CC[C@]2(CC(=O)N[C@H](C)c3nc(cs3)/C=C\C=C\C1=O)[S+]([O-])SC(=O)[C@]2(C)OC(C)=O (stereo partly drawn) | 780 | 2 | 15 | – |
| COC1(OC)/C=C/C=C\c2csc(n2)[C@@H](C)NC(=O)C[C@@]2(CC/C(C)=C/[C@H]1O)[S+]([O-])SC(=O)[C@]2(C)O (stereo partly drawn) | > 10000 | – | – | – |
| C/C1=C\[C@@H](O)C(O)/C=C/C=C\c2csc(n2)[C@@H](C)NC(=O)C[C@@]2(CC1)[S+]([O-])SC(=O)[C@]2(C)O (stereo in doubt; 7-1) | – | – | – | 6200 |
| C/C1=C\[C@@H](O)C(O)/C=C/C=C\c2csc(n2)[C@@H](C)NC(=O)C[C@@]2(CC1)[S+]([O-])SC(=O)[C@]2(C)O (stereo in doubt; 7-2) | 4900 | – | – | – |
| CO\N=C1/C=C/C=C\c2csc(n2)[C@@H](C)NC(=O)C[C@@]2(CC/C(C)=C/[C@H]1O)[S+]([O-])SC(=O)[C@]2(C)O (stereo in doubt; 9b-1) | – | – | – | 67 |
| CO\N=C1/C=C/C=C\c2csc(n2)[C@@H](C)NC(=O)C[C@@]2(CC/C(C)=C/[C@H]1O)[S+]([O-])SC(=O)[C@]2(C)O (stereo in doubt; 9b-2) | 110 | 2 | 21 | – |
| C/C1=C\[C@@H](O)C(=N/OCc2ccccc2)/C=C/C=C\c2csc(n2)[C@@H](C)NC(=O)C[C@@]2(CC1)[S+]([O-])SC(=O)[C@]2(C)O (stereo in doubt; 9c-1) | – | 8 | 29 | 110 |
| C/C1=C\[C@@H](O)C(=N/OCc2ccccc2)/C=C/C=C\c2csc(n2)[C@@H](C)NC(=O)C[C@@]2(CC1)[S+]([O-])SC(=O)[C@]2(C)O (stereo in doubt; 9c-2) | – | 2 | 31 | 9.5 |
| C/C1=C\[C@@H](O)C(=O)/C=C/C=C\c2csc(n2)[C@@H](C)NC(=O)C[C@@]2(CC1)[S+]([O-])SC(=O)[C@]2(C)O (stereo partly drawn) [LEINAMYCIN] | 11 | 0.38 | 57 | – |
